According to patent EP2281824A1, “Furan-imidazolone derivatives, for the treatment of cognitive, neurodegenerative or neuronal diseases or disorders” (NOSCIRA, S.A., priority 2009, dated 2011):
pIC50: −log10 of the molar value.

What was measured:
[1] = biological target: T1, BACE-1 β-Secretase recombinant human enzyme (Homo sapiens, UniProt P56817); assay: BACE assay (time-resolved fluorescence, TruPoint BACE1 substrate); assay type: biochemical; conditions: 200 nM peptide substrate, 8 nM enzyme, sodium acetate pH 4.5, 1 h at room temperature; read-out: IC50 Inhibition of BACE Activity
T1 construct: purchased R&D Systems
Protocol: This assay is based on time-resolved fluorescence ("TRF") technology, using a. BACE peptide substrate containing a fluorescent europium chelate coupled to one end and a quencher coupled to the other end. […] The reagents which are used in this assay are BACE-1 β-Secretase recombinant human enzyme (R&D Systems, Minneapolis, MN), TruPoint™ BACE1 substrate (Perkin Elmer Waltham, MA), sodium acetate, CHAPS and EDTA (Sigma Aldrich, St Louis, MO). The assay is carried out in a 96-well microplate in a final volume of 100 µl using 200 nM peptide substrate and 8 nM enzyme in 50 mM sodium acetate pH 4.5 with 1 mM EDTA and 0.2% (w/v) CHAPS. The plates are incubated for 1 h in the dark at room temperature and then read in a fluorimeter plate reader provided with time-resolved fluorescence capabilities (PolarStar Optima™, BMG-Labtech, Offenburg, Germany) using 337 nm as excitation wavelength and 615 nm as the emission wavelength. Compounds are tested in duplicate using a concentration range extending from 5 nM to 100 µM, using 10 µM H-4848 (commercial BACE inhibitor, BACHEM, Bubendorf, Switzerland) as control.
The compounds of formula (I) of the present invention where submitted to the above indicated assay, in order to determine their BACE activity inhibition. The results, indicated in IC50 format, are indicated below in Table I. IC50 is the half maximal inhibitory concentration, which is a measure of the effectiveness of a compound in inhibiting biological or biochemical function. This quantitative measure indicates the concentration of a particular substance is needed to inhibit a given biological process by half. In other words, it is the half maximal (50%) inhibitory concentration (IC) of a substance.

[2] = tested on: Aβ secretion; assay: Inhibition of beta-amyloid secretion (Aβ1-40 ELISA of cell culture supernatants); assay type: cell-based; conditions: CHO-7W; CHO7w cell line stably transfected with human BACE, 48 hours, Aβ (1-40) in supernatants
Protocol: To quantify human Aβ1-40 an ELISA-based commercial kit was used (Immunoassay Kit Human β Amyloid 1-40, The Genetics Company, Schlieren, Switzerland). Aβ (1-40) peptide was quantified from cell culture supernatants using a CHO7w cell line stably transfected with human BACE. β-Secretase inhibitor IV (Calbiochem, San Diego, CA), was used as Aβ secretion reduction positive control in all the Aβ secretion studies. Cells were grown in DMEM supplemented with 2% Foetal bovine serum, 1% penicillin-streptomycin, 1% L-glutamine and 200 µg/ml G418. Cells were seeded in 96-well culture microplates at 5000 cells/well and treated with 10 µM β secretase inhibitor IV or compounds for 48 hours. Then cell culture supernatants were collected and analyzed according to the kit manufacturer's instructions. At 10 µM β-secretase inhibitor IV the inhibition of Aβ secretion inhibition is usually between 70 and 100 %.
Some of the compounds of formula (I) of the present invention where submitted to the above indicated assay, in order to determine their capacity of inhibiting Aβ secretion. The results, indicated in IC50 format, are indicated below in Table I. Table I

T1 sequence (P56817 46-501): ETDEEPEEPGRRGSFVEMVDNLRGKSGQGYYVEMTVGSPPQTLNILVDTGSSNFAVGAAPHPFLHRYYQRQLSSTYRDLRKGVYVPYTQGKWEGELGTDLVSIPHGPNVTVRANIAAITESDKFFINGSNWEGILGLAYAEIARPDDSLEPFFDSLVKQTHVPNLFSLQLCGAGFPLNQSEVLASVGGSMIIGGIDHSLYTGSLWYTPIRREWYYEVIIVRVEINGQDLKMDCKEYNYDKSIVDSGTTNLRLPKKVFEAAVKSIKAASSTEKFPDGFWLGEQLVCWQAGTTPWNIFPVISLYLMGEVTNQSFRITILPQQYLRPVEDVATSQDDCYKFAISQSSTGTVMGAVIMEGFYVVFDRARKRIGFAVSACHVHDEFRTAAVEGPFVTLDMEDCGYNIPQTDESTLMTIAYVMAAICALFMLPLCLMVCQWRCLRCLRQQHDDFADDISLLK

SMILES	pIC50 [1]	pIC50 [2]
NC1=NC(=Cc2ccc(-c3ccc([N+](=O)[O-])cc3)o2)C(=O)N1 [Compound 1, 2-amino-5-[5-(4-nitro-phenyl)-furan-2-ylmethylene]-3,5 dihydro-imidazol-4-one]	6.96	
COc1ccc(-c2ccc(C=C3N=C(N)N(C)C3=O)o2)cc1Cl [Compound 2, 2-amino-S-[S-(3-chloro-4-methoxy-phenyl)-furan-2-ylmethylene]-3-methyl-3,5-dihydro-imidazol-4-one]	6.49	
COc1ccc(-c2ccc(C=C3N=C(N)NC3=O)o2)c(OC)c1 [Compound 3, 2-amino-5-[5-(2,4-dimethoxy-phenyl)-furan-2-ylmethylene]-3,5-dihydro-imidazol-4-one]	6.43	
NC1=NC(=Cc2ccc(-c3ccc4c(c3)OCO4)o2)C(=O)N1 [Compound 4, 2-amino-5-(5-benzo[1,3]dioxol-5-yl-furan-2-ylmethylene)-3,5-dihydro-imidazol-4-one]	6.60	4.52
COc1ncccc1-c1ccc(C=C2N=C(N)NC2=O)o1 [Compound 5, 2-amino-5-[5-(2-methoxy-pyridin-3-yl)-furan-2-ylmethylene]-3,5-dihydro-imidazol-4-one]	6.44	4.40
COc1ncc(-c2ccc(C=C3N=C(N)NC3=O)o2)c(OC)n1 [Compound 6, 2-amino-5-[5-(2,4-dimethoxy-pyrimidin-5-yl)-furan-2-ylmethylene]-3,5-dihydro-imidazol-4-one]	5.88	
Cc1noc(C)c1-c1ccc(C=C2N=C(N)NC2=O)o1 [Compound 7, 2-Amino-5-[5-(3,5-dimethyl-isoxazol-4-yl)-furan-2-ylmethylene]-3,5-dihydro-imidazol-4-one]	6.41	
NC1=NC(=Cc2ccc(-c3ncccn3)o2)C(=O)N1 [Compound 8, 2-amino-5-(5-pyrimidin-2-yl-furan-2-ylmethylene)-3,5-dihydro-imidazol-4-one]	5.89	
COC(=O)c1ccc(OC)c(-c2ccc(C=C3N=C(N)NC3=O)o2)c1 [Compound 9, 3-[5-(2-amino-5-oxo-1,5-dihydro-imidazol-4-ylidenemethyl)-furan-2-yl]-4-methoxy-benzoic acid methyl ester]	6.15	4.35
COc1ccc(-c2ccc(C=C3N=C(N)NC3=O)o2)cc1Cl [Compound 10, 2-Amino-5-[5-(3-chloro-4-methoxy-phenyl)-furan-2-ylmethylene]-3,5-dihydro-imidazol-4-one]	6.50	
COc1ccc(C#N)cc1-c1ccc(C=C2N=C(N)N(C)C2=O)o1 [Compound 11, 3-[5-(2-Amino-1-methyl-5-oxo-1,5-dihydro-imidazol-4-ylidenemethyl)-furan-2-yl]-4-methoxy-benzonitrile]	6.66	
COc1ccc(-c2ccc(C=C3N=C(N)N(Cc4ccccc4)C3=O)o2)cc1Cl [Compound 12, 2-Amino-3-benzyl-5-[5-(3-chloro-4-methoxy-phenyl)-furan-2-ylmethylene]-3,5-dihydro-imidazol-4-one]	5.91	
COCCN1C(=O)C(=Cc2ccc(-c3ccc(OC)c(Cl)c3)o2)N=C1N [Compound 13, 2-Amino-5-[5-(3-chloro-4-methoxy-phenyl)-furan-2-ylmethylene]-3-(2-methoxy-ethyl)-3,5-dihydro-imidazol-4-one]	6.09	
COc1ncccc1-c1ccc(C=C2N=C(N)N(C)C2=O)o1 [Compound 14, 2-Amino-5-[5-(2-methoxy-pyridin-3-yl)-furan-2-ylmethylene]-3-methyl-3,5-dihydro-imidazol-4-one]	6.27	
COc1ccc(-c2ccc(C=C3N=C(N)N(C)C3=O)o2)c(OC)c1 [Compound 15, 2-Amino-5-[5-(2,4-dimethoxy-phenyl)-furan-2-ylmethylene]-3-methyl-3,5-dihydro-imidazol-4-one]	6.46	
Cc1noc(C)c1-c1ccc(C=C2N=C(N)N(C)C2=O)o1 [Compound 16, 2-amino-5-[5-(3,5-dimethyl-isoxazol-4-yl)-furan-2-ylmethylene]-3-methyl-3,5-dihydro-imidazol-4-one]	5.91	
COc1ccc(-c2ccc(C=C3N=C(N)NC3=O)o2)cc1 [Compound 17, 2-Amino-5-[5-(4-methoxy-phenyl)-furan-2-ylmethylene]-3,5-dihydro-imidazol-4-one]	6.37	4.46
CN1C(=O)C(=Cc2ccc(-c3ccc([N+](=O)[O-])cc3)o2)N=C1N [Compound 18, Acetate 1-methyl-4-[5-(4-nitro-phenyl)-furan-2-ylmethylene]-5-oxo-4,5-dihydro-1H-imidazol-2-yl-ammonium]	6.40	
